Tests used:
Assay in all cases: relative viability (nuclei count vs DMSO), 5 days (fraction); higher = more cells survive
[1] = tested on: LCLC-97TM1
Outline: (§1)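 Lung cancer cell lines were pin-tool dosed in 1536-well plates on the day after seeding, with either a lone drug or a fixed anchor-drug dose plus five library-drug doses (not always all listed) in √10 steps. Nuclei were counted on 4× images after 5 days. Relative viability is the ratio of treated-well to vehicle-well nuclei counts, with each value a median of duplicate plates.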

[2] = tested on: NCI-H2347
Outline: as §1

[3] = tested on: NCI-H2405
Outline: as §1

[4] = tested on: HCC-827
Outline: as §1

[5] = tested on: NCI-H661
Outline: as §1

[6] = tested on: NCI-H650
Outline: as §1

[7] = tested on: RERF-LC-KJ
Outline: as §1

[8] = tested on: NCI-H2126
Outline: as §1

[9] = tested on: NCI-H522
Outline: as §1

[10] = tested on: 201T
Outline: as §1

[11] = tested on: NCI-H23
Outline: as §1

[12] = tested on: EPLC-272H
Outline: as §1

[13] = tested on: PC-14
Outline: as §1

[14] = tested on: HCC-78
Outline: as §1

[15] = tested on: NCI-H1666
Outline: as §1

[16] = tested on: H3255
Outline: as §1

[17] = tested on: NCI-H2087
Outline: as §1

[18] = tested on: COR-L 105
Outline: as §1

[19] = tested on: NCI-H322M
Outline: as §1

[20] = tested on: LC-2-ad
Outline: as §1

[21] = tested on: NCI-H647
Outline: as §1

[22] = tested on: ChaGo-K-1
Outline: as §1

[23] = tested on: NCI-H1915
Outline: as §1

[24] = tested on: NCI-H520
Outline: as §1

CC(C)Oc1cc(Nc2nc(N[C@@H](C)c3ccc(F)cn3)ncc2Cl)n[nH]1 [AZ23] + CC(=O)Nc1cccc(-n2c(=O)n(C3CC3)c(=O)c3c(Nc4ccc(I)cc4F)n(C)c(=O)c(C)c32)c1 [Trametinib] (partner 0.02 µM)
relative viability ([1]; first compound 0.01 µM): 0.238 | relative viability ([1]; first compound 0.03162 µM): 0.209 | relative viability ([1]; first compound 0.3162 µM): 0.189 | relative viability ([2]; first compound 0.01 µM): 0.272 | relative viability ([2]; first compound 0.03162 µM): 0.272 | relative viability ([2]; first compound 0.3162 µM): 0.232 | relative viability ([3]; first compound 0.01 µM): 0.572 | relative viability ([3]; first compound 0.03162 µM): 0.673 | relative viability ([3]; first compound 0.3162 µM): 0.599 | relative viability ([4]; first compound 0.01 µM): 0.456 | relative viability ([4]; first compound 0.03162 µM): 0.563 | relative viability ([4]; first compound 0.3162 µM): 0.557 | relative viability ([5]; first compound 0.01 µM): 0.611 | relative viability ([5]; first compound 0.03162 µM): 0.575 | relative viability ([5]; first compound 0.3162 µM): 0.547 | relative viability ([6]; first compound 0.01 µM): 0.955 | relative viability ([6]; first compound 0.03162 µM): 0.99 | relative viability ([6]; first compound 0.3162 µM): 0.987 | relative viability ([7]; first compound 0.01 µM): 0.837 | relative viability ([7]; first compound 0.03162 µM): 0.883 | relative viability ([7]; first compound 0.3162 µM): 0.862 | relative viability ([8]; first compound 0.01 µM): 0.574 | relative viability ([8]; first compound 0.03162 µM): 0.556 | relative viability ([8]; first compound 0.3162 µM): 0.532 | relative viability ([9]; first compound 0.01 µM): 0.894 | relative viability ([9]; first compound 0.03162 µM): 0.796 | relative viability ([9]; first compound 0.3162 µM): 0.617 | relative viability ([10]; first compound 0.01 µM): 0.716 | relative viability ([10]; first compound 0.03162 µM): 0.731 | relative viability ([10]; first compound 0.3162 µM): 0.649 | relative viability ([11]; first compound 0.03162 µM): 0.364 | relative viability ([11]; first compound 0.3162 µM): 0.361 | relative viability ([12]; first compound 0.03162 µM): 0.267 | relative viability ([12]; first compound 0.3162 µM): 0.274 | relative viability ([13]; first compound 0.01 µM): 0.599 | relative viability ([13]; first compound 0.03162 µM): 0.783 | relative viability ([13]; first compound 0.3162 µM): 0.749 | relative viability ([14]; first compound 0.01 µM): 0.494 | relative viability ([14]; first compound 0.03162 µM): 0.669 | relative viability ([14]; first compound 0.3162 µM): 0.418 | relative viability ([15]; first compound 0.01 µM): 0.804 | relative viability ([15]; first compound 0.03162 µM): 0.847 | relative viability ([15]; first compound 0.3162 µM): 0.903 | relative viability ([16]; first compound 0.01 µM): 0.595 | relative viability ([16]; first compound 0.03162 µM): 0.609 | relative viability ([16]; first compound 0.3162 µM): 0.632 | relative viability ([17]; first compound 0.01 µM): 0.189 | relative viability ([17]; first compound 0.03162 µM): 0.196 | relative viability ([17]; first compound 0.3162 µM): 0.187 | relative viability ([18]; first compound 0.01 µM): 0.432 | relative viability ([18]; first compound 0.03162 µM): 0.371 | relative viability ([18]; first compound 0.3162 µM): 0.478 | relative viability ([19]; first compound 0.01 µM): 0.454 | relative viability ([19]; first compound 0.03162 µM): 0.481 | relative viability ([19]; first compound 0.3162 µM): 0.565 | relative viability ([20]; first compound 0.01 µM): 1.09 | relative viability ([20]; first compound 0.03162 µM): 0.898 | relative viability ([20]; first compound 0.3162 µM): 0.868 | relative viability ([21]; first compound 0.01 µM): 0.61 | relative viability ([21]; first compound 0.03162 µM): 0.58 | relative viability ([21]; first compound 0.3162 µM): 0.509 | relative viability ([22]; first compound 0.01 µM): 0.855 | relative viability ([22]; first compound 0.03162 µM): 0.921 | relative viability ([22]; first compound 0.3162 µM): 0.979 | relative viability ([23]; first compound 0.01 µM): 0.303 | relative viability ([23]; first compound 0.03162 µM): 0.297 | relative viability ([23]; first compound 0.3162 µM): 0.239 | relative viability ([24]; first compound 0.01 µM): 0.853 | relative viability ([24]; first compound 0.03162 µM): 0.707 | relative viability ([24]; first compound 0.3162 µM): 0.587

CC(C)Oc1cc(Nc2nc(N[C@@H](C)c3ccc(F)cn3)ncc2Cl)n[nH]1 [AZ23] + CC(=O)c1c(C)c2cnc(Nc3ccc(N4CCNCC4)cn3)nc2n(C2CCCC2)c1=O [Palbociclib] (partner 0.5 µM)
relative viability ([1]; first compound 0.01 µM): 0.261 | relative viability ([1]; first compound 0.03162 µM): 0.248 | relative viability ([1]; first compound 0.3162 µM): 0.203 | relative viability ([2]; first compound 0.01 µM): 0.441 | relative viability ([2]; first compound 0.03162 µM): 0.418 | relative viability ([2]; first compound 0.3162 µM): 0.398 | relative viability ([3]; first compound 0.01 µM): 0.585 | relative viability ([3]; first compound 0.03162 µM): 0.52 | relative viability ([3]; first compound 0.3162 µM): 0.589 | relative viability ([4]; first compound 0.01 µM): 0.47 | relative viability ([4]; first compound 0.03162 µM): 0.535 | relative viability ([4]; first compound 0.3162 µM): 0.471 | relative viability ([5]; first compound 0.01 µM): 0.367 | relative viability ([5]; first compound 0.03162 µM): 0.391 | relative viability ([5]; first compound 0.3162 µM): 0.349 | relative viability ([6]; first compound 0.01 µM): 0.352 | relative viability ([6]; first compound 0.03162 µM): 0.309 | relative viability ([6]; first compound 0.3162 µM): 0.301 | relative viability ([7]; first compound 0.01 µM): 1.13 | relative viability ([7]; first compound 0.03162 µM): 1.14 | relative viability ([7]; first compound 0.3162 µM): 1.14 | relative viability ([8]; first compound 0.01 µM): 0.332 | relative viability ([8]; first compound 0.03162 µM): 0.335 | relative viability ([8]; first compound 0.3162 µM): 0.342 | relative viability ([9]; first compound 0.01 µM): 1.2 | relative viability ([9]; first compound 0.03162 µM): 1.01 | relative viability ([9]; first compound 0.3162 µM): 0.795 | relative viability ([10]; first compound 0.01 µM): 0.359 | relative viability ([10]; first compound 0.03162 µM): 0.38 | relative viability ([10]; first compound 0.3162 µM): 0.372 | relative viability ([11]; first compound 0.03162 µM): 0.548 | relative viability ([11]; first compound 0.3162 µM): 0.512 | relative viability ([12]; first compound 0.03162 µM): 0.279 | relative viability ([12]; first compound 0.3162 µM): 0.315 | relative viability ([13]; first compound 0.01 µM): 0.492 | relative viability ([13]; first compound 0.03162 µM): 0.567 | relative viability ([13]; first compound 0.3162 µM): 0.577 | relative viability ([14]; first compound 0.01 µM): 0.533 | relative viability ([14]; first compound 0.03162 µM): 0.463 | relative viability ([14]; first compound 0.3162 µM): 0.544 | relative viability ([15]; first compound 0.01 µM): 0.673 | relative viability ([15]; first compound 0.03162 µM): 0.647 | relative viability ([15]; first compound 0.3162 µM): 0.652 | relative viability ([16]; first compound 0.01 µM): 0.31 | relative viability ([16]; first compound 0.03162 µM): 0.318 | relative viability ([16]; first compound 0.3162 µM): 0.295 | relative viability ([17]; first compound 0.01 µM): 0.255 | relative viability ([17]; first compound 0.03162 µM): 0.21 | relative viability ([17]; first compound 0.3162 µM): 0.22 | relative viability ([18]; first compound 0.01 µM): 0.53 | relative viability ([18]; first compound 0.03162 µM): 0.463 | relative viability ([18]; first compound 0.3162 µM): 0.396 | relative viability ([19]; first compound 0.01 µM): 0.446 | relative viability ([19]; first compound 0.03162 µM): 0.472 | relative viability ([19]; first compound 0.3162 µM): 0.485 | relative viability ([20]; first compound 0.01 µM): 0.593 | relative viability ([20]; first compound 0.03162 µM): 0.529 | relative viability ([20]; first compound 0.3162 µM): 0.501 | relative viability ([21]; first compound 0.01 µM): 0.408 | relative viability ([21]; first compound 0.03162 µM): 0.405 | relative viability ([21]; first compound 0.3162 µM): 0.466 | relative viability ([22]; first compound 0.01 µM): 1.12 | relative viability ([22]; first compound 0.03162 µM): 0.97 | relative viability ([22]; first compound 0.3162 µM): 1 | relative viability ([23]; first compound 0.01 µM): 0.571 | relative viability ([23]; first compound 0.03162 µM): 0.492 | relative viability ([23]; first compound 0.3162 µM): 0.5 | relative viability ([24]; first compound 0.01 µM): 0.236 | relative viability ([24]; first compound 0.03162 µM): 0.193 | relative viability ([24]; first compound 0.3162 µM): 0.177
